This is an account of results in US7270966B2, “Human pyrimidine receptor” (Euroscreen SA, priority 1995, dated 2007).

Where two headings read alike, the source gives them in different places.

In experiment [1] the target is T1, human P2Y4 receptor (Homo sapiens, UniProt P51582).
T1 construct: expressed in transfected cells; host or cells: 1321N1 human astrocytoma cells, G418-selected clone, pcDNA3-P2Y4
Put plainly: InsP3 accumulation in 1321N1 cells expressing the human P2Y4 receptor. Type of experiment: cell-based. Conditions: for agonist effect on InsP3 at 30 s: 30 s incubation, 100 μM; for effect per se on InsP3 production: agonist alone; for functional response (IP3 accumulation) in pool of G418-resistant clones: pool of transfected 1321N1 clones. How it is done: Cells were transfected with the recombinant pcDNA3 plasmid (pcDNA3-P2Y4) using the calcium phosphate precipitation method as described (16). 1321N1 cells were incubated for 6 hours at 37° C. in the presence of pcDNA3 vector alone or vector containing the P2Y4 receptor coding sequence, then washed and incubated in culture medium (10% FCS, 100 U/ml penicillin, 100 μ/ml streptomycin and 2.5 μg/ml amphotericin B in Dulbecco's modified Eagle's medium (DMEM)). The selection with G418 (400 μg/ml) was started two days after transfection. From the pool of transfected 1321N1 cells, individual clones were isolated by limiting dilution with the aim of selecting clones with high IP stimulation factors in response to nucleotides. The different clones were maintained in a medium containing 400 μg/ml G418.
(§1) 1321N1 cells were labeled for 24 hours with 10 μCi/ml [^3H] inositol in inositol-free DMEM (Dulbecco's modified Eagle's medium) medium containing 5% fetal calf serum, 100 U/ml penicillin, 100 μg/ml streptomycin, 2.5 μg/ml amphotericin B and 400 μg/ml G418. Cells were washed twice with KRH (Krebs-Ringer Hepes) buffer of the following composition: (124 mM NaCl, 5 mM KCl, 1.25 mM MgSC4, 1.45 mM CaCl2, 25 mM Hepes (pH 7.4) and 8 mM glucose) and incubated in this medium for 30 min The agonists were added in the presence of LiCl (10 mM) and the incubation was stopped after 30 s, 5 min or 20 min by the addition of an ice-cold 3% perchloric acid solution. For the time course study, LiCl (10 mM) was added 5 min before the agonists and the incubation was stopped at different times. When tested, pertussis toxin (20 ng/ml) was added for 18 h during the labeling period time and during the stimulation by the agonist. Inositol phosphates were extracted and InsP3 was isolated by chromatography on Dowex column as described previously (17).

Experiment [2] relates to muscarinic receptors endogenously expressed in the 1321N1 cells. Kind of experiment: Action of carbachol (InsP3) via muscarinic receptors endogenously expressed in 1321N1 cells. The conditions noted are these: cells transfected with P2Y4-pcDNA3 or vector alone. Type of experiment: cell-based, human. The method, then: as §1
The maximal effect of ATP observed after a 20 min incubation represented about 27±9% of that of UTP (mean±S.D. of ten experiments). […] The ATP concentration-inhibition curves were shifted to the right when the UTP concentration was increased, indicating the competitive nature of this inhibitory effect (panels A and B). On the other hand, at lower concentrations (30-300 μM), ATP enhanced the response to UTP by 29% (range 12-47%, mean of four experiments) (panel B). […] This observation was reproduced with cells transfected with the recombinant P2Y4-pcDNA3 plasmid or with the vector alone and was also obtained with AMP and adenosine (data not shown).

The target of experiment [3] is T1, human P2Y4 receptor. Kind of experiment: Radioligand binding of [α32P]UTP to membranes of P2Y4-transfected 1321N1 clones. Conditions: clones 2, 11 and 21; 0.5 nM radioligand; data not shown. How it is done:
Binding assays of [α^32P] UTP to cell membranes were carried out in Tris-HCl (50 mM, pH 7.5), EDTA 1 mM in a final volume of 0.5 ml, containing 25-50 μg of protein and 0.5 nM of radioligand (27). The assays were conducted at 30° C. for 5 min. Incubations were stopped by the addition of 4 ml of ice-cold Tris-HCl (50 mM, pH 7.5) and rapid filtration through Whatman GF/B filters under reduced pressure. The filters were then washed three times with 2 ml of the same ice-cold Tris-HCl buffer. Radioactivity was quantified by liquid scintillation counting, after an overnight incubation of the filters in liquid scintillation mixture.

[4] abbreviates: 20 min incubation, 10 mM LiCl, read-out: EC50 InsP3 accumulation, full concentration-action curves.
The mark [5] stands for this setting: antagonist 100 μM, UTP 2 and 10 μM, 20 min.
[6] abbreviates: clone 2, 20 min incubation, 10 mM LiCl, read-out: EC50 InsP3 production.
[7] abbreviates: clone 11, 20 min incubation, 10 mM LiCl, read-out: EC50 InsP3 production.
Setting [8] is: clone 21, 20 min incubation, 10 mM LiCl, read-out: EC50 InsP3 production.

T1 sequence (P51582 whole entry): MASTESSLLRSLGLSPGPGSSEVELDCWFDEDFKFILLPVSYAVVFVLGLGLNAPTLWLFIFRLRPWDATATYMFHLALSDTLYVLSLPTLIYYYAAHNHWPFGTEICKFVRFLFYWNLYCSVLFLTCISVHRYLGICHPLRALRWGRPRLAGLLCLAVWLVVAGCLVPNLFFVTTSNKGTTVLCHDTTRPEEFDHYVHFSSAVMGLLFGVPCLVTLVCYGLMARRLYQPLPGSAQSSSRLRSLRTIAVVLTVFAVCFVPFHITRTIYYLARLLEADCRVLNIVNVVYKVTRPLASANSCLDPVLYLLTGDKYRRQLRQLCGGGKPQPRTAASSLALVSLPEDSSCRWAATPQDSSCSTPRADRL

Take `O=c1[nH]c(=O)n([C@@H]2O[C@H](COP(=O)(O)OP(=O)(O)OP(=O)(O)O)[C@@H](O)[C@H]2O)cc1Br` [5BrUTP]: on human P2Y4 receptor [1], the “agonist effect on InsP3 at 30 s” value was “barely or not active”. Further, at human P2Y4 receptor [1] (setting [4]), the EC50 amounted to 27.1 ± 1.9 µM.
For `Nc1ncnc2c1ncn2[C@@H]1O[C@H](COP(=O)(O)OP(=O)(O)O)[C@@H](O)[C@H]1O` [ADP], on human P2Y4 receptor [1], the “inhibition of the action of UTP (qualitative)” value is on record as “did not inhibit”. The “stimulation by UTP in presence of ADP, relative to UTP alone” value on human P2Y4 receptor [1] (ADP 100 μM, UTP 10 μM) turned out to be 158±15%. Moreover, the “effect per se on InsP3 production” value at human P2Y4 receptor [1] (data not shown) is given as “almost no effect”. Further, the “effect on the action of carbachol” value in experiment [2] is “increased”.
`Nc1ncnc2c1ncn2[C@@H]1O[C@H](COP(=O)(O)O)[C@@H](O)[C@H]1O` [AMP]: the “effect per se on InsP3 production” value on human P2Y4 receptor [1] (data not shown) is reported as “without any effect”. Further, in experiment [2], the “effect on the action of carbachol” value is “increased”.
Regarding `Nc1ncnc2c1ncn2[C@@H]1O[C@H](COP(=O)(O)OP(=O)(O)OP(=O)(O)O)[C@@H](O)[C@H]1O` [ATP], at human P2Y4 receptor [1], the “agonist effect on InsP3 at 30 s” value is listed as “no effect” and the “functional response (IP3 accumulation) in pool of G418-resistant clones” value is “agonists”. On human P2Y4 receptor [1] (setting [4]), the EC50 is about 43 µM. Also, the “maximal effect relative to that of UTP” value at human P2Y4 receptor [1] (20 min incubation, % of UTP maximal effect) was “about 27±9%”. Further, the “enhancement of the response to UTP” value at human P2Y4 receptor [1] (ATP 30-300 μM, 20 min) is listed as 29%. The “antagonism of the response to UTP” value at human P2Y4 receptor [1] (UTP 10 μM, ATP 2 mM, 30 s) is “fully antagonized”. For the same compound, the “inhibition of the UTP effect” value against human P2Y4 receptor [1] (UTP 10 μM, ATP 2 mM, 20 min) is 62±11%. Besides, the “ATP concentration able to inhibit the effect of UTP” value on human P2Y4 receptor [1] (both at 30 s and 20 min) was at least 500 µM. Also, in experiment [2], the “effect on the action of carbachol” value is “increased”.
As to `Nc1ncnc2c1ncn2[C@@H]1O[C@H](COP(=O)(O)OP(=O)(O)OP(O)(O)=S)[C@@H](O)[C@H]1O` [ATPyS], the “effect per se on InsP3 production” value at human P2Y4 receptor [1] (data not shown) was “without any effect”.
On to `O=c1[nH]cnc2c1ncn2[C@@H]1O[C@H](COP(=O)(O)OP(=O)(O)OP(=O)(O)O)[C@@H](O)[C@H]1O` [ITP], for which the “agonist effect on InsP3 at 30 s” value at human P2Y4 receptor [1] is recorded as “barely or not active”. Besides, the EC50 on human P2Y4 receptor [1] (setting [4]) was 32.8 ± 5.4 µM.
`Cc1nc(N=Nc2ccc(S(=O)(=O)O)cc2S(=O)(=O)O)c(COP(=O)(O)O)c(C=O)c1O` [PPADS]: the “inhibition of the UTP response by antagonist” value (“inhibition … by antagonist” for short) on human P2Y4 receptor [1] (setting [5]) is 73±14%. Further, the IC50 (in general, the midpoint of a concentration-inhibition curve) at human P2Y4 receptor [1] (data not shown, read-out: IC50 for inhibition of the UTP response) was about 15 µM.
In the case of `Nc1c(S(=O)(=O)O)cc(Nc2ccc(Nc3nc(Cl)nc(Nc4cccc(S(=O)(=O)O)c4)n3)c(S(=O)(=O)O)c2)c2c1C(=O)c1ccccc1C2=O` [RB-2, reactive blue 2], the “inhibition … by antagonist” value against human P2Y4 receptor [1] turned out to be 33±5%.
Regarding `O=c1ccn([C@@H]2O[C@H](COP(=O)(O)OP(=O)(O)O)[C@@H](O)[C@H]2O)c(=O)[nH]1` [UDP], on human P2Y4 receptor [1], the “agonist effect on InsP3 at 30 s” value was “barely or not active”. In addition, the EC50 came out at 19.5 ± 3.9 µM on human P2Y4 receptor [1] (setting [4]), 3.3 ± 0.6 µM on human P2Y4 receptor [1] (setting [6]), 19.8 ± 4.8 µM at human P2Y4 receptor [1] (setting [7]) and 3.2 ± 0.8 µM at human P2Y4 receptor [1] (setting [8]).
`O=c1ccn([C@@H]2O[C@H](COP(=O)(O)O)[C@@H](O)[C@H]2O)c(=O)[nH]1` [UMP]: the “effect per se on InsP3 production” value on human P2Y4 receptor [1] (data not shown) is recorded as “without any effect”.
On to `O=c1ccn([C@@H]2O[C@H](COP(=O)(O)OP(=O)(O)OP(=O)(O)O)[C@@H](O)[C@H]2O)c(=O)[nH]1` [UTP, uridine triphosphate], for which the EC50 at human P2Y4 receptor [1] (20 min, 100 μM PPADS, read-out: EC50 value for UTP in the presence of PPADS) turned out to be 12.2 ± 4.5 µM; on human P2Y4 receptor [1] (20 min, no PPADS, read-out: EC50 value for UTP in the absence of PPADS), 3.3 ± 0.6 µM; on human P2Y4 receptor [1] (setting [4]), 2.5 ± 0.6 µM; at human P2Y4 receptor [1] (setting [6]), 0.3 ± 0.1 µM; at human P2Y4 receptor [1] (setting [7]) it was 2.4 ± 0.1 µM; at human P2Y4 receptor [1] (setting [8]) it was 0.3 ± 0.1 µM. Besides, the “potency of UTP relative to UDP” value at human P2Y4 receptor [1] (clone 11, 20 min incubation) turned out to be 10 fold. Besides, the “functional response (IP3 accumulation) in pool of G418-resistant clones” value on human P2Y4 receptor [1] was “agonists”.
With `O=c1ccn(C2OC(CO[32P](=O)(O)OP(=O)(O)OP(=O)(O)O)C(O)C2O)c(=O)[nH]1` (stereo not drawn) [[α^32P] UTP], the “specific binding versus cells transfected with the vector alone” value on human P2Y4 receptor [3] was “no increase in specific binding”.
As for `Nc1ncnc2c1ncn2[C@@H]1O[C@H](CO)[C@@H](O)[C@H]1O` [adenosine], the “effect per se on InsP3 production” value on human P2Y4 receptor [1] (data not shown) is “without any effect”. Also, the “effect on the action of carbachol” value in experiment [2] is “increased”.
`O=c1ccn([C@H]2C[C@H](O)[C@@H](COP(=O)(O)OP(=O)(O)OP(=O)(O)O)O2)c(=O)[nH]1` [dUTP]: the “agonist effect on InsP3 at 30 s” value on human P2Y4 receptor [1] was “barely or not active”. In addition, at human P2Y4 receptor [1] (setting [4]), the EC50 came out at 20 ± 2.3 µM.
Regarding `Cc1ccc(C(=O)Nc2ccc(S(=O)(=O)O)c3cc(S(=O)(=O)O)cc(S(=O)(=O)O)c23)cc1NC(=O)c1cccc(NC(=O)Nc2cccc(C(=O)Nc3cc(C(=O)Nc4ccc(S(=O)(=O)O)c5cc(S(=O)(=O)O)cc(S(=O)(=O)O)c45)ccc3C)c2)c1` [suramin], at human P2Y4 receptor [1] (setting [5]), the “inhibition … by antagonist” value is “inactive”.
For the compound `O=c1ccn([C@@H]2O[C@H](CO)[C@@H](O)[C@H]2O)c(=O)[nH]1` [uridine], on human P2Y4 receptor [1] (data not shown), the “effect per se on InsP3 production” value is listed as “without any effect”.
Take pertussis toxin: the “inhibition of the UTP response by pertussis toxin” value on human P2Y4 receptor [1] (20 ng/ml, 18 hours pretreatment, UTP 100 μM, 30 s) is 62±5%. Also, the “effect of pertussis toxin on the UTP response” value on human P2Y4 receptor [1] (20 ng/ml, 18 hours pretreatment, UTP 100 μM, 5 min) is listed as “no significant effect”; on human P2Y4 receptor [1] (20 ng/ml, 18 hours pretreatment, UTP 100 μM, 20 min), “no significant effect”.
